What all share (assay): DTP human tumour cell line panel, 48 h
Assay [1] concerns CAKI-1 renal.
Assay [2] relates to CCRF-CEM leukemia.
In assay [3] the test system is HL-60(TB) leukemia.
Assay [4] has as its system HS 578T breast.
Assay [5] has as its system M14 melanoma.
In assay [6] the test system is MDA-MB-435.
For assay [7], the system named is MDA-N.
In assay [8] the test system is NCI-H522 lung.
Assay [9] has as its system OVCAR-5 ovarian.
Assay [10] relates to SF-539 CNS.
Assay [11] concerns SK-MEL-5 melanoma.
Assay [12] concerns SNB-19 CNS.
The subject of assay [13] is SW-620 colon.
For assay [14], the system named is TK-10 renal.
For assay [15], the system named is UACC-62 melanoma.
For assay [16], the system named is UO-31 renal.
The subject of assay [17] is SN12C renal.

Our source for the TGI values is PubChem BioAssay (NCI).

SMILES strings stand for the structures.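 Each compound was tested at five concentrations against cells in 96-well plates for 48 hours. Definition used: TGI = concentration required for complete inhibition of growth.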

The term TGI denotes the concentration giving total growth inhibition. A low value points to more potent growth arrest. `CC(NC1=NCCO1)c1ccsc1` (configuration not stated): the TGI in [1] was over 100 µM; in assay [2], 46.5 µM; in assay [3], 53.3 µM; in assay [4] it was 33.9 µM; in assay [5], 35.4 µM; in assay [6], 43.1 µM. The TGI in [7] was 65.8 µM; in assay [8] it was 35 µM; in assay [9], over 100 µM; in assay [10], 38.2 µM; in assay [11] it was 40.1 µM; in [12], over 100 µM. Also, the total growth inhibition concentration (TGI) in assay [13] is 43.9 µM; in assay [14] it was over 100 µM; in [15], 34.3 µM; in assay [16], over 100 µM.

For the molecule `O=[N+]([O-])c1ccc(C2=NOC(c3ccccc3)N2C23CC4CC(CC(C4)C2)C3)cc1` (configuration not stated), the TGI is 3.23 µM in assay [1]; 47.5 µM in [2]; over 100 µM in [3]; 52.6 µM in [4]; 88.4 µM in assay [5]; 44.5 µM in assay [6]. Further, the TGI in assay [7] was 58 µM; in [8], 35.3 µM; in assay [9], 53.2 µM; in [10] it was over 100 µM; in assay [11], 38.4 µM; in assay [17], over 100 µM. Moreover, the TGI in assay [13] is over 100 µM; in assay [14] it was over 100 µM; in assay [15], 85.8 µM; in assay [16], 67.3 µM.

For the molecule `C#CCC(O)c1ccc(OC)c(OCc2ccccc2)c1` (configuration not stated), the TGI in assay [1], in assay [2], in assay [3], in assay [4], in [5] and in [6] was over 100 µM each time. Besides, the TGI in assay [7], in [8], in assay [9], in [10], in assay [11] and in assay [17] was over 100 µM throughout. Also, the TGI in [12], in [14], in assay [15] and in assay [16] was over 100 µM throughout.

As to `c1ccc(CN2C3C4N(Cc5ccccc5)C2C2N(Cc5ccccc5)C(C(N2Cc2ccccc2)N4Cc2ccccc2)N3Cc2ccccc2)cc1`, the TGI in [1], in assay [2], in [3], in assay [4], in [5] and in assay [6] was over 100 µM in each case. Besides, the TGI in [7], in assay [8], in assay [9], in assay [10], in [11] and in assay [17] was over 100 µM throughout. Moreover, the concentration for total growth inhibition (TGI) in assay [13], in [14] and in [15] was over 100 µM each time.

Regarding `O=c1c2ccccc2nc(-c2ccccc2)n1/N=C/c1ccccc1[N+](=O)[O-]`, the TGI in [1] is over 100 µM; in assay [2], over 100 µM; in [3], over 100 µM; in assay [4], 15.9 µM; in assay [5], over 100 µM; in assay [6], over 100 µM. Also, the TGI in assay [7], in assay [8], in assay [9], in [10], in assay [11] and in assay [17] was over 100 µM each time. Besides, the TGI in assay [12] was 56.7 µM; in assay [13], over 100 µM; in assay [14] it was over 59.6 µM; in [15], over 100 µM.

Consider `O=S(=O)(N=[Se](=O)(c1ccccc1)c1ccccc1)c1ccccc1`, for which the TGI in [1] was over 100 µM; in assay [2] it was over 100 µM; in [3], 88.1 µM; in [4], over 100 µM; in [5], over 100 µM; in assay [6], over 100 µM. In addition, the TGI in assay [7], in assay [8], in [9], in assay [10], in assay [11] and in assay [17] was over 100 µM each time. The TGI in assay [12], in assay [13], in assay [14] and in assay [16] was over 100 µM in each case.

Regarding `OC(Cc1cnnc2ccccc12)C(Cl)(Cl)Cl` (configuration not stated), the TGI in [1], in assay [2], in assay [3], in assay [4], in [5] and in [6] was over 10 µM each time. Further, the TGI in assay [7], in assay [8], in assay [10], in assay [11], in assay [17] and in assay [12] was over 10 µM each time. The TGI in assay [13], in assay [14], in assay [15] and in assay [16] was over 10 µM in each case.

For the molecule `O=[N+]([O-])c1ccccc1S(=O)(=O)c1cccc2c1NCCC2`, the TGI in assay [1], in assay [2], in assay [3], in assay [4], in assay [5] and in assay [6] was over 100 µM throughout. In addition, the TGI in [7] was over 100 µM; in assay [9], over 100 µM; in assay [10], over 100 µM; in [11] it was 52.3 µM; in assay [17], over 100 µM; in assay [12] it was over 100 µM. The TGI in assay [13], in assay [14], in assay [15] and in assay [16] was over 100 µM in each case.
